What was measured:
Assay in all cases: relative viability (nuclei count vs DMSO), 5 days (fraction); higher = more cells survive
JZL-184 + Trametinib = compound: C1CN(CCC1C(C2=CC3=C(C=C2)OCO3)(C4=CC5=C(C=C4)OCO5)O)C(=O)OC6=CC=C(C=C6)[N+](=O)[O-] [JZL-184] + CC(=O)Nc1cccc(-n2c(=O)n(C3CC3)c(=O)c3c(Nc4ccc(I)cc4F)n(C)c(=O)c(C)c32)c1 [Trametinib] (partner 0.02 µM)
Method in brief: (§1)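 Nuclei were stained with Hoechst during a one-step fixation (final 0.05% Triton X-100, 1% formaldehyde, 1 ug/ml Hoechst) carried out 5 days after dosing, then counted on 4× images. The cells, lung cancer lines in 1536-well plates, had been dosed by pin tool the day after seeding with one drug alone or a fixed anchor-drug dose plus five library-drug doses (not always all listed) in √10 steps. Relative viability is the nuclei count in treated wells divided by that in vehicle wells, and each value is the median of duplicate plates.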

JZL-184 + Crizotinib = compound: C1CN(CCC1C(C2=CC3=C(C=C2)OCO3)(C4=CC5=C(C=C4)OCO5)O)C(=O)OC6=CC=C(C=C6)[N+](=O)[O-] [JZL-184] + C[C@@H](Oc1cc(-c2cnn(C3CCNCC3)c2)cnc1N)c1c(Cl)ccc(F)c1Cl [Crizotinib] (partner 1 µM)
Method in brief: as §1

JZL-184 + Linsitinib = compound: C1CN(CCC1C(C2=CC3=C(C=C2)OCO3)(C4=CC5=C(C=C4)OCO5)O)C(=O)OC6=CC=C(C=C6)[N+](=O)[O-] [JZL-184] + C[C@]1(O)C[C@@H](c2nc(-c3ccc4ccc(-c5ccccc5)nc4c3)c3c(N)nccn32)C1 [Linsitinib] (partner 1 µM)
Method in brief: as §1

JZL-184 + Pemetrexed = compound: C1CN(CCC1C(C2=CC3=C(C=C2)OCO3)(C4=CC5=C(C=C4)OCO5)O)C(=O)OC6=CC=C(C=C6)[N+](=O)[O-] [JZL-184] + Nc1nc2[nH]cc(CCc3ccc(C(=O)N[C@@H](CCC(=O)O)C(=O)O)cc3)c2c(=O)[nH]1 [Pemetrexed] (partner 0.2 µM)
Method in brief: as §1

JZL-184 + Olaparib = compound: C1CN(CCC1C(C2=CC3=C(C=C2)OCO3)(C4=CC5=C(C=C4)OCO5)O)C(=O)OC6=CC=C(C=C6)[N+](=O)[O-] [JZL-184] + O=C(c1cc(Cc2n[nH]c(=O)c3ccccc23)ccc1F)N1CCN(C(=O)C2CC2)CC1 [Olaparib] (partner 8 µM)
Method in brief: as §1

| Cell Line | relative viability (JZL-184 + Trametinib; first compound 0.04 µM) | relative viability (JZL-184 + Trametinib; first compound 0.4 µM) | relative viability (JZL-184 + Trametinib; first compound 1.265 µM) | relative viability (JZL-184 + Trametinib; first compound 4 µM) | relative viability (JZL-184 + Crizotinib; first compound 0.04 µM) | relative viability (JZL-184 + Crizotinib; first compound 0.4 µM) | relative viability (JZL-184 + Crizotinib; first compound 1.265 µM) | relative viability (JZL-184 + Crizotinib; first compound 4 µM) | relative viability (JZL-184 + Linsitinib; first compound 0.04 µM) | relative viability (JZL-184 + Linsitinib; first compound 0.4 µM) | relative viability (JZL-184 + Linsitinib; first compound 1.265 µM) | relative viability (JZL-184 + Linsitinib; first compound 4 µM) | relative viability (JZL-184 + Pemetrexed; first compound 0.04 µM) | relative viability (JZL-184 + Pemetrexed; first compound 0.4 µM) | relative viability (JZL-184 + Pemetrexed; first compound 1.265 µM) | relative viability (JZL-184 + Pemetrexed; first compound 4 µM) | relative viability (JZL-184 + Olaparib; first compound 0.04 µM) | relative viability (JZL-184 + Olaparib; first compound 0.4 µM) | relative viability (JZL-184 + Olaparib; first compound 1.265 µM) | relative viability (JZL-184 + Olaparib; first compound 4 µM) |
| --- | --- | --- | --- | --- | --- | --- | --- | --- | --- | --- | --- | --- | --- | --- | --- | --- | --- | --- | --- | --- |
| RERF-LC-KJ | 0.952 | 0.868 | 0.876 | 0.781 | 0.844 | 0.75 | 0.856 | 0.742 | 0.874 | 0.854 | 0.867 | 0.873 | 0.496 | 0.463 | 0.468 | 0.44 | 0.976 | 0.911 | 0.895 | 0.905 |
| SK-LU-1 | 0.448 | 0.402 | 0.653 | 0.46 | 1.05 | 0.889 | 1.15 | 1.11 | 1.29 | 1.02 | 1.11 | 1.11 | 1.04 | 0.887 | 1 | 0.881 | 0.593 | 0.408 | 0.463 | 0.642 |
| SK-MES-1 | 0.623 | 0.524 | 0.609 | 0.5 | 1.03 | 0.867 | 1.01 | 0.924 | 1.07 | 1.04 | 1.1 | 1.06 | 0.9 | 0.872 | 1 | 0.907 | 0.792 | 0.698 | 0.765 | 0.662 |
| SW 1573 | 0.602 | 0.564 | 0.589 | 0.445 | 0.904 | 0.724 | 0.883 | 0.759 | 0.856 | 0.833 | 0.781 | 0.814 | 1.11 | 0.842 | 0.915 | 0.876 | 0.68 | 0.351 | 0.454 | 0.479 |
| UMC-11 | 0.891 | 0.679 | 0.736 | 0.646 | 0.787 | 0.679 | 0.555 | 0.57 | 1.43 | 0.935 | 1.09 | 0.944 | 0.916 | 0.755 | 0.876 | 0.79 | 0.349 | 0.333 | 0.308 | 0.354 |

From the supplement of paper PMC10307832
